Measured values published in ChEMBL document CHEMBL5724803, “Viability screening in matched tumor and normal assay results for EUbOPEN Chemogenomics Library” (2024).

Tested on: Colon organoid
Assay type: functional, Homo sapiens

| Structure (SMILES) | Cell Viability Ratio |
| --- | --- |
| Cc1c(NC(=O)c2ccc(C(C)(C)C)cc2)cccc1-c1cn(C)c(=O)c(Nc2ccc(C(=O)N3CCOCC3)cc2)n1 | 0.9821 |
| CCOC(=O)c1c(/C(C#N)=C\N)c2ccc(Cl)c(Cl)c2n1C | 1.055 |
| Cl.Cl.Cl.c1ccc(N2CCN(Cc3nc4ccccc4[nH]3)CC2)nc1 | 0.9546 |
| O=C(Nc1cccnn1)N1CCC(=Cc2cccc(Oc3ccc(C(F)(F)F)cn3)c2)CC1 | 0.957 |
| COc1cc(Nc2nccc(-c3cnn4nc(OC)ccc34)n2)cc(C(F)(F)F)c1 | 1.735 |
| Cc1ccc(NC(=O)Nc2cc(C(F)(F)F)ccc2F)cc1Nc1ccc2c(c1)NC(=O)/C2=C\c1ccc[nH]1 | 0.7659 |
| CCCCNc1ncc(-c2ccc(CN3CCOCC3)cn2)c(N[C@H]2CC[C@H](O)CC2)n1 | 1.102 |
| COc1cc(-c2cn([C@H]3CCc4c(F)cccc4N(CC(F)(F)F)C3=O)nn2)ccc1-n1cnc(C)c1 | 1.087 |
| Clc1cccc(-c2nnnn2Cc2cccnc2)c1Cl | 0.9298 |
| Cc1nc(N2CC[C@H](O)C2)ncc1-c1cc(C(F)(F)F)cc2[nH]ncc12 | 1.041 |
| CCOc1cn(-c2ccc(F)cc2C)nc1C(=O)Nc1ccc(Oc2ccnc3cc(OC)c(OC)cc23)c(F)c1 | 0.8903 |
| Cc1c(C(=O)Nc2ccc(Oc3ccnc4[nH]cc(-c5ccccc5)c34)c(F)c2)c(=O)n(-c2ccc(F)cc2)n1C | 0.9213 |
| CCNC(=O)c1cc2c(N3CCOC[C@@H]3C)ccnc2n1C | 1.086 |
| CCNC(=O)c1cc2c(N3CCOC[C@@H]3C)ccnc2[nH]1 | 0.9047 |
| COc1cc(Nc2ccnc3ccc(Br)cc23)cc(OC)c1OC | 1.477 |
| CCN(CC)S(=O)(=O)Nc1cccc(-c2ccc3c(NC(=O)C4CC4)n[nH]c3c2)c1 | 1.062 |
| CN(C)C(=O)Cn1cc(-c2ccc(-c3cncc4ccccc34)cc2)cn1 | 0.9698 |
| CC(C)C(=O)Nc1n[nH]c2cc(-c3cccc(NS(=O)(=O)C4CC4)c3)ccc12 | 1.005 |
| COc1cc(N(C)c2ccnc3ccc(C(F)(F)F)cc23)cc(OC)c1OC | 0.896 |
| CN1CCN(Cc2cc(NC(=O)c3ccc4c(c3)CN(c3ccccc3)CC4)cc(C(F)(F)F)c2)CC1 | 1.189 |
| Cc1cn(-c2cc(NC(=O)c3ccc4c(c3)CN(c3cncnc3)C[C@@H]4C)cc(C(F)(F)F)c2)cn1 | 1.531 |
| CN(C)C(=O)/C(C#N)=C/c1ccc(-c2nc3cnc4[nH]ccc4c3n2C2CCCCC2)o1 | 0.9378 |
| Cl.Cl.NC1(c2ccc(-c3nc4ccn5c(=O)[nH]nc5c4cc3-c3ccccc3)cc2)CCC1 | 1.463 |
| Cn1cc(-c2ccc3occ(-c4ccccc4-c4ccccc4)c3n2)cn1 | 0.9405 |
| Cc1cccc(-c2cnc3occ(-c4ccc(C(=O)O)c(C5CCCC5)c4)c3c2)c1 | 0.9583 |
| COc1cc(-c2cn([C@H]3CCc4ccccc4N(CC(F)(F)F)C3=O)nn2)ccc1-n1ccc(C)n1 | 0.9931 |

| Structure (SMILES) | Cell Viability Ratio |
| --- | --- |
| C[C@@H](c1cccc(CN)c1)n1cc(Cl)cc(C(N)=O)c1=N.Cl | 1.078 |
| Cn1cc(-c2ccc3occ(-c4cccc(-c5ccncc5)c4)c3n2)cn1 | 0.9731 |
| CCCCN(CCCC)C(=O)CN1C[C@H](c2cc(OC)c3c(c2)OCO3)[C@@H](C(=O)O)[C@@H]1CC(C)(C)CCC.Cc1ccc(S(=O)(=O)O)cc1 | 0.9627 |
| O=C(NCCCN1CCOC1=O)c1cnc(NCc2cc(Br)ccc2Br)nc1NC1CCCC1 | 0.9691 |
| CCN(Cc1ccc(Cl)cc1)c1ncc(C(=O)NCCCN2CCCC2=O)c(NC2CCCC2)n1 | 1.023 |
| O=C(NCc1ccccc1)c1ccc(S(=O)(=O)NCc2ccccc2)cc1 | 1.216 |
| O=C(Nc1cccnn1)N1CC(C/C=C/c2cncc(Oc3ccc(C(F)(F)F)cn3)n2)C1 | 0.9954 |
| O=C(O)c1ccc(-c2coc3ncc(-c4ccccc4)cc23)cc1Cl | 0.9757 |
| CCCCN(Cc1ccccc1)C(=O)c1ccc(S(=O)(=O)Nc2ccccc2)cc1 | 1.3021 |
| CCCCN(CCCC)C(=O)CN1C[C@@H](c2cc(OC)c3c(c2)OCO3)[C@H](C(=O)O)[C@H]1CC(C)(C)CCC.Cl | 0.8768 |
| CN(C)C(=O)/C(C#N)=C/c1ccc(-c2nc3cnc4c(ccn4C)c3n2C2CCCCC2)o1 | 0.859 |
| c1ccc2oc(-c3csc(C4CCN(Cc5nc6ncccc6[nH]5)CC4)n3)cc2c1 | 0.6127 |
| COc1cc(Nc2nc(C)cc(-c3cnn4nc(OC)ccc34)n2)cc(C(F)(F)F)c1 | 0.9824 |
| CN(C)C(=O)Cn1cc(-c2ccc(-c3nnc4ccccn34)cc2)cn1 | 1.225 |
| CN(C)C(=O)N1CC[C@H](NC2=Nc3cc(F)ccc3N(CC(F)F)c3ccc(Cl)cc32)C1 | 0.9552 |
| CN(C)[C@@H]1CCN(c2cc(-c3ccccc3)nc3ccnn23)C1 [(R)-ZINC-3573] | 0.9989 |
| CN(C)[C@H]1CCN(c2cc(-c3ccccc3)nc3ccnn23)C1 [(S)-ZINC-3573] | 1.093 |
| Cn1cncc1[C@@](O)(COc1ccc(C#N)cc1-c1ccc(OC(F)(F)F)cc1)c1ccc(C#N)cc1 [A-108] | 0.984 |
| CCC(=N\O)/C(C)=C/c1ccc(F)c(C)c1 [A-226] | 1.032 |
| CNC(=O)Nc1ccc2c(c1)CC[C@@]21OC(=O)N(CC(=O)N(Cc2ccc(F)cc2)[C@@H](C)C(F)(F)F)C1=O [A-485] | 0.9163 |
| CNC(=O)Nc1ccc2c(c1)[C@@]1(CC2)OC(=O)N(CC(=O)N(Cc2ccc(F)cc2)[C@@H](C)C(F)(F)F)C1=O [A-486] | 0.9599 |
| CCCCN(CCCC)C(=O)CN1C[C@@H](c2cc(OC)c3c(c2)OCO3)[C@H](C(=O)O)[C@H]1CC(C)(C)CCC [A-545] | 1.095 |
| CCCOc1ccc([C@H]2[C@H](C(=O)O)[C@@H](c3ccc4c(c3)OCO4)CN2CC(=O)Nc2c(CC)cccc2CC)cc1 [A-192621] | 1.0774 |
| O=C(NS(=O)(=O)c1ccc(NCC2CCOCC2)c([N+](=O)[O-])c1)c1ccc(N2CCN(Cc3ccc(C(F)(F)F)cc3-c3ccc(Cl)cc3)CC2)cc1Oc1cnc2[nH]ccc2c1 [A-1210227] | 0.9477 |
| CO[C@H]1CC[C@H](CNc2ccc(S(=O)(=O)NC(=O)c3ccc(N4CCN(CC5=C(c6ccc(Cl)cc6)CC(C)(C)CC5)CC4)cc3Oc3cnc4[nH]ccc4c3)cc2[N+](=O)[O-])CC1 [A-1211212] | 0.9488 |
| COc1ccc2c(c1)O[C@H](c1ccc(OC)c(OC)c1)C[C@@H]2NC(=O)C1(c2ccc3c(c2)OC(F)(F)O3)CC1 [A-1596584] | 0.985 |

| Structure (SMILES) | Cell Viability Ratio |
| --- | --- |
| COc1ccc2c(c1)O[C@@H](c1ccc(OC)c(OC)c1)C[C@H]2NC(=O)C1(c2ccc3c(c2)OC(F)(F)O3)CC1 [A-1596586] | 1.062 |
| CCCOc1ccc([C@@H]2[C@@H](C(=O)O)[C@H](c3ccc4c(c3)OCO4)CN2CC(=O)Nc2c(CC)cccc2CC)cc1 [A-1806262] | 1.041 |
| Cc1cnc(-c2cc(Cl)ccc2F)cc1-n1c(=O)n(CC(N)=O)c2ccccc21 [Al11] | 1.079 |
| Cn1c(-c2csc(C3CCN(CC4=NC5N=CC=CC5N4)CC3)n2)nc2ccccc21 (stereo unspecified) [BAY-070] | 0.9524 |
| NS(=O)(=O)c1cc(NC(=O)C2(c3ccccc3Cl)CC2)ccc1Oc1cccc(Cl)c1 [BAY-207] | 0.9336 |
| Cc1cc(NC(=O)c2cccc(S(F)(F)(F)(F)F)c2)cc(-n2ccn3nc(-c4cccnc4)cc23)c1 [BAY-309] | 1.076 |
| O=C(N1CCS(=O)(=O)CC1)N1C[C@H](c2ccc(OC(F)(F)F)cc2)C[C@H](c2nc(C3CC3)no2)C1 [BAY-386] | 0.9974 |
| O[C@]1(C(F)(F)F)CCCC[C@H]1Nc1ccc(F)cc1 [BAY-390] | 0.968 |
| Cc1c(N2CCNCC2)nc2ccc(Br)cc2c1C(=O)NC[C@H](CCC(=O)O)c1ccccc1Cl [BAY-403] | 0.887 |
| CN(C)c1ncnc(-c2ccc3nc(Nc4cc(CN5CCN(C(=O)CC(F)(F)F)CC5)ccn4)[nH]c3c2)c1Cl [BAY-440] | 0.922 |
| Cc1noc([C@H]2C[C@@H](c3ccc(C(F)(F)F)cc3)CN(C(=O)N3CCS(=O)(=O)C3)C2)n1 [BAY-448] | 0.9504 |
| CC1=C(C#N)C(c2ccc3[nH]nc(C)c3c2)C(C#N)=C(C)N1 [BAY-474] | 0.9495 |
| Cc1c(NC(=O)c2cc(C(N)=O)nc3cc(F)ccc23)c(C(F)(F)F)nn1Cc1ccc(C(C)(C)C)cc1 [BAY-588] | 1.099 |
| O=C(O)[C@@H]1[C@@H](Cn2nnc3ccccc3c2=O)CC[C@H]1C(=O)c1ccc(OCCC2CCOCC2)cc1 [BAY-694] | 1.051 |
| O=C(NCc1ncc(C(F)(F)F)cc1Cl)c1ccc2c(c1)C1(CCS(=O)(=O)CC1)[C@H](C1CC1)N2S(=O)(=O)c1ccc(F)cc1 [BAY-784] | 0.9106 |
| O=C(NCc1ncc(C(F)(F)F)cc1Cl)c1ccc2c(c1)C1(CCS(=O)(=O)CC1)[C@@H](C1CC1)N2S(=O)(=O)c1ccc(F)cc1 [BAY-786] | 1.0741 |
| Cc1c(NC(=O)c2cc(C(N)=O)nc3cc(F)ccc23)c(C(F)(F)F)nn1Cc1ccc(C#N)cc1 [BAY-876] | 1.117 |
| CN1CCN(c2cnc3c(C4CCN(C(=O)c5ccc(OC(F)(F)F)cc5N)CC4)ncnc3c2)CC1 [BAY-885] | 0.9479 |
| O=C(Nc1cnc(Oc2ccc(F)cc2)nc1)N1CCc2ncccc2[C@@H]1c1ccc(F)cc1 [BAY-899] | 1.086 |
| CC1=C(C#N)C(c2ccc3c(c2)c(NC(=O)c2ccccc2C)nn3C)C(C#N)=C(C)N1 [BAY-974] | 1.012 |
| C[C@H](c1ccnc(Nc2nc3ccc(-c4cc(N(C)C)ncn4)cc3[nH]2)c1)N1CCN(C(=O)CC(F)(F)F)CC1 [BAY-985] | 0.822 |
| Cn1cc(Cl)c2c(Oc3c(F)cc(Nc4cc(Cl)nc(N)n4)cc3F)ccnc21 [BAY-4900] | 1.21 |
| Cc1c(N2CCCC2)nc2ccc(Br)cc2c1C(=O)NC[C@H](CCC(=O)O)c1ccccc1Cl [BAY-6672] | 0.9418 |
| O=C(O)[C@H]1[C@H](Cn2nnc3ccccc3c2=O)CC[C@@H]1C(=O)c1ccc(OCCC2CCOCC2)cc1 [BAY-7598] | 1.026 |
